Assay results from ChEMBL document CHEMBL1201862, “PubChem BioAssay data set” (2004).
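Growth conditions: 96-well plates. Treatment: test compound, 48 hours, 5 concentrations. Analysis: linear interpolation between bracketing concentrations; unreached endpoints set to highest concentration. GI50 marks 50% less growth.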 The source made the active and inactive calls. Rule as the data show it: active = GI50 up to about 1.1 µM and inactive = higher.

Tests used:
Test in all cases: growth of human tumour cells (NCI), 48 h
IGROV-1 = system: IGROV-1
OVCAR-3 = system: OVCAR-3
MCF7 = system: MCF7
SK-MEL-28 = system: SK-MEL-28
NCI-H23 = system: NCI-H23
SW-620 = system: SW-620
UACC-257 = system: UACC-257
A549 = system: A549
MDA-MB-435 = system: MDA-MB-435
HT-29 = system: HT-29
SNB-19 = system: SNB-19
CAKI-1 = system: CAKI-1
TK-10 = system: TK-10
HOP-92 = system: HOP-92
786-0 = system: 786-0
OVCAR-4 = system: OVCAR-4
MOLT-4 = system: MOLT-4
M14 = system: M14
T47D = system: T47D
COLO 205 = system: COLO 205

SMILES | GI50 (IGROV-1) | GI50 (OVCAR-3) | GI50 (MCF7) | GI50 (SK-MEL-28) | GI50 (NCI-H23) | GI50 (SW-620) | GI50 (UACC-257) | GI50 (A549) | GI50 (MDA-MB-435) | GI50 (HT-29) | GI50 (SNB-19) | GI50 (CAKI-1) | GI50 (TK-10) | GI50 (HOP-92) | GI50 (786-0) | GI50 (OVCAR-4) | GI50 (MOLT-4) | GI50 (M14) | GI50 (T47D) | GI50 (COLO 205)
NC(=S)SCCC(=O)O | > 100 µM (inactive) | > 100 µM (inactive) | > 100 µM (inactive) | > 100 µM (inactive) | > 100 µM (inactive) | > 100 µM (inactive) | > 100 µM (inactive) | > 100 µM (inactive) | > 100 µM (inactive) | > 100 µM (inactive) | > 100 µM (inactive) | > 100 µM (inactive) | > 100 µM (inactive) | > 100 µM (inactive) | > 100 µM (inactive) | > 100 µM (inactive) | > 100 µM (inactive) | > 100 µM (inactive) | 43.2 µM (inactive) | > 100 µM (inactive)
CCC1=[N+](CC)CCN1CC | > 100 µM (inactive) | > 100 µM (inactive) | > 100 µM (inactive) | > 100 µM (inactive) | > 100 µM (inactive) | > 100 µM (inactive) | > 100 µM (inactive) | > 100 µM (inactive) | > 100 µM (inactive) | > 100 µM (inactive) | > 100 µM (inactive) | > 100 µM (inactive) | > 100 µM (inactive) | > 100 µM (inactive) | > 100 µM (inactive) | > 100 µM (inactive) | > 100 µM (inactive) | > 100 µM (inactive) | > 100 µM (inactive) | > 100 µM (inactive)
COC(=O)N1CC2(CO)C3CC=C(C(=O)Nc4ccccc4Br)C2C1C3Br (stereo not given) | > 50 µM (inactive) | > 50 µM (inactive) | > 50 µM (inactive) | > 50 µM (inactive) | > 50 µM (inactive) | > 50 µM (inactive) | > 50 µM (inactive) | > 50 µM (inactive) | > 50 µM (inactive) | > 50 µM (inactive) | > 50 µM (inactive) | > 50 µM (inactive) | > 50 µM (inactive) | > 50 µM (inactive) | > 50 µM (inactive) | > 50 µM (inactive) | > 50 µM (inactive) | > 50 µM (inactive) | > 50 µM (inactive) | > 50 µM (inactive)
C=C1C(=O)OC2C1C(=O)C/C(C)=C/CCC1(C)OC21 (stereo not given) | 20.1 µM (inactive) | 15.1 µM (inactive) | 8.63 µM (inactive) | 15.2 µM (inactive) | 19.5 µM (inactive) | 16.4 µM (inactive) | 20.1 µM (inactive) | 19.4 µM (inactive) | 15.4 µM (inactive) | 20.6 µM (inactive) | 38.4 µM (inactive) | 14.7 µM (inactive) | 16.1 µM (inactive) | 15.2 µM (inactive) | 14 µM (inactive) | 18.7 µM (inactive) | 17.3 µM (inactive) | 15.6 µM (inactive) | 11.2 µM (inactive) | 5.45 µM (inactive)
Cn1cc(C=C(C#N)C#N)c(=O)n(C)c1=O | > 100 µM (inactive) | > 100 µM (inactive) | > 100 µM (inactive) | > 100 µM (inactive) | > 100 µM (inactive) | 56.1 µM (inactive) | > 100 µM (inactive) | > 100 µM (inactive) | > 100 µM (inactive) | > 100 µM (inactive) | > 100 µM (inactive) | > 100 µM (inactive) | > 100 µM (inactive) | > 100 µM (inactive) | > 100 µM (inactive) | > 100 µM (inactive) | 0.809 µM (active) | > 100 µM (inactive) | > 100 µM (inactive) | > 100 µM (inactive)
C[C@@H]1C[C@H](O)[C@]2(O)O[C@@H]3C[C@@]4(C=O)[C@@H](CC=C5[C@@H]4CC[C@]4(C)[C@@H](C6=CC(=O)OC6)CC[C@]54O)C[C@H]3O[C@@H]2O1 | < 0.0118 µM (active) | 0.0131 µM (active) | < 0.0188 µM (active) | 0.128 µM (active) | 0.0118 µM (active) | < 0.0227 µM (active) | 0.0702 µM (active) | < 0.0109 µM (active) | 0.0332 µM (active) | < 0.0212 µM (active) | 0.218 µM (active) | < 0.0125 µM (active) | < 0.01 µM (active) | 0.0277 µM (active) | 0.0124 µM (active) | < 0.0106 µM (active) | < 0.01 µM (active) | 0.0574 µM (active) | 0.0218 µM (active) | 0.0984 µM (active)
CCCNc1[nH]c(C(C)=O)c(N)c1C(=S)Nc1ccccc1 | 0.507 µM (active) | 42.4 µM (inactive) | 19.2 µM (inactive) | 24.7 µM (inactive) | 41 µM (inactive) | > 100 µM (inactive) | 30.1 µM (inactive) | 33.3 µM (inactive) | 21 µM (inactive) | 20 µM (inactive) | 38.4 µM (inactive) | 46.8 µM (inactive) | 39.1 µM (inactive) | 34 µM (inactive) | 26.4 µM (inactive) | 23.1 µM (inactive) | 69.2 µM (inactive) | 19.4 µM (inactive) | 47.1 µM (inactive) | 31.6 µM (inactive)
COc1cc(OC(=O)c2ccccc2)cc2c1C(=O)C=CC2=O | 15.1 µM (inactive) | 5.32 µM (inactive) | 11 µM (inactive) | 18.2 µM (inactive) | 16.2 µM (inactive) | 8.79 µM (inactive) | 16.2 µM (inactive) | 36.2 µM (inactive) | 5.65 µM (inactive) | 14.1 µM (inactive) | 30.6 µM (inactive) | 20.6 µM (inactive) | 17.9 µM (inactive) | 2.16 µM (inactive) | 8.39 µM (inactive) | 5.4 µM (inactive) | 1.73 µM (inactive) | 14.4 µM (inactive) | 1.89 µM (inactive) | 16.2 µM (inactive)
COC(=O)C1(Cc2cccc(C)c2)Cc2c(C)cccc2C1=O (stereo not given) | 46.9 µM (inactive) | 24.5 µM (inactive) | 33.7 µM (inactive) | > 100 µM (inactive) | 37.5 µM (inactive) | 31.4 µM (inactive) | 82.8 µM (inactive) | 38.6 µM (inactive) | 14.1 µM (inactive) | 29.6 µM (inactive) | 98.9 µM (inactive) | 64.9 µM (inactive) | 89.3 µM (inactive) | 30.4 µM (inactive) | 93.8 µM (inactive) | 41.7 µM (inactive) | 36.8 µM (inactive) | 34.4 µM (inactive) | 28.4 µM (inactive) | 37.2 µM (inactive)
Cc1ccc(S(=O)(=O)NC(CN)C(=O)O)cc1 (stereo not given) | > 100 µM (inactive) | > 100 µM (inactive) | > 100 µM (inactive) | > 100 µM (inactive) | > 100 µM (inactive) | > 100 µM (inactive) | > 100 µM (inactive) | > 100 µM (inactive) | > 100 µM (inactive) | > 100 µM (inactive) | > 100 µM (inactive) | > 100 µM (inactive) | > 100 µM (inactive) | > 100 µM (inactive) | > 100 µM (inactive) | > 100 µM (inactive) | 36.8 µM (inactive) | > 100 µM (inactive) | > 100 µM (inactive) | > 100 µM (inactive)
O=c1cc(CN2CCCCC2)nc2ccc3c(O)cc(CN4CCCCC4)nc3n12 | > 100 µM (inactive) | > 100 µM (inactive) | > 100 µM (inactive) | > 100 µM (inactive) | > 100 µM (inactive) | > 100 µM (inactive) | 88.9 µM (inactive) | > 100 µM (inactive) | > 100 µM (inactive) | > 100 µM (inactive) | > 100 µM (inactive) | > 100 µM (inactive) | > 100 µM (inactive) | 26.2 µM (inactive) | > 100 µM (inactive) | > 100 µM (inactive) | 89.7 µM (inactive) | > 100 µM (inactive) | > 100 µM (inactive) | > 100 µM (inactive)
COc1ccc(/[N+]([O-])=C/c2ccc(OC(=S)S)c(OC)c2)cc1 | 39.3 µM (inactive) | 43.9 µM (inactive) | 5.58 µM (inactive) | 52.2 µM (inactive) | 29.6 µM (inactive) | 30.9 µM (inactive) | > 100 µM (inactive) | 40.6 µM (inactive) | 9.46 µM (inactive) | 33.3 µM (inactive) | 43.6 µM (inactive) | 17 µM (inactive) | 85.1 µM (inactive) | 23.2 µM (inactive) | 50.6 µM (inactive) | 17.4 µM (inactive) | 33 µM (inactive) | 46.8 µM (inactive) | 28.6 µM (inactive) | 44.9 µM (inactive)
CC(=O)O[C@H]1CCc2c(cc(N)c3c2C(=O)C[C@]2(C)C([C@H](C)CCCC(C)C)CCC32C)C1(C)C (stereo not given in full) | > 100 µM (inactive) | > 100 µM (inactive) | 57.9 µM (inactive) | > 100 µM (inactive) | 60.5 µM (inactive) | > 100 µM (inactive) | 85.7 µM (inactive) | > 100 µM (inactive) | 86.7 µM (inactive) | 42.2 µM (inactive) | > 100 µM (inactive) | > 100 µM (inactive) | > 100 µM (inactive) | > 100 µM (inactive) | > 100 µM (inactive) | 92.7 µM (inactive) | > 100 µM (inactive) | > 100 µM (inactive) | > 100 µM (inactive) | > 100 µM (inactive)
c1ccc2c(c1)CCN2CCN1CCc2ccccc21 | > 10 µM (inactive) | > 10 µM (inactive) | > 10 µM (inactive) | > 10 µM (inactive) | > 10 µM (inactive) | > 10 µM (inactive) | > 10 µM (inactive) | > 10 µM (inactive) | > 10 µM (inactive) | > 10 µM (inactive) | > 10 µM (inactive) | > 10 µM (inactive) | > 10 µM (inactive) | > 10 µM (inactive) | > 10 µM (inactive) | > 10 µM (inactive) | > 10 µM (inactive) | > 10 µM (inactive) | > 10 µM (inactive) | > 10 µM (inactive)
